Measured values taken from publication PMC8151276, “An Integrated Approach toward NanoBRET Tracers for Analysis of GPCR Ligand Engagement” (Molecules, 2021).

Legend:
Format in all cases: binding
CXCR5 = target: T1, CXCR5 (Homo sapiens, UniProt P32302); assay: NanoBRET screen HiBiT-CXCR5 in HEK293
T1 construct: purchased Promega (in-house HiBiT-GPCR construct library, NanoBRET)
T1 sequence (P32302 1-372): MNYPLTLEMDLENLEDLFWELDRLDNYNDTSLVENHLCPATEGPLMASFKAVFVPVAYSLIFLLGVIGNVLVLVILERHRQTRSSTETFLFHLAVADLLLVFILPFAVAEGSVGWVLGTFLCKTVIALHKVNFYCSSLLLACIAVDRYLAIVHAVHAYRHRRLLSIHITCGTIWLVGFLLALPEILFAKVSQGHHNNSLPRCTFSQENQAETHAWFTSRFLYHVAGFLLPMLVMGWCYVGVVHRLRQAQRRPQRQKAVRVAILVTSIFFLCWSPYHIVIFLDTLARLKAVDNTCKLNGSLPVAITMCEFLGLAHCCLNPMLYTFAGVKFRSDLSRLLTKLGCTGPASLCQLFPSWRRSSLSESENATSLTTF
Method: (§1) Each tracer candidate was screened across the entire library of HiBiT-GPCR constructs using NanoBRET as the detection modality. As depicted in Figure 4A, the specificity of interactions was evaluated through decrease in BRET due to competitive displacement of a bound tracer by excess parental compound. Each tracer was analyzed for binding to each HiBiT-GPCR fusion in the absence and in the presence of competing parental compound. Briefly, HEK293 cells were transfected with HiBiT-GPCR constructs diluted into promoterless DNA to reduce expression and maximize translocation to the cell surface. Each tracer candidate was then screened at concentrations of 1 μM and 0.1 μM across cells expressing these fusions. Cells were treated for 1.5 h with tracer either alone or in the presence of 20 μM competing parental compound (i.e., control). BRET was measured upon addition of purified LgBiT and subsequent complementation with HiBiT genetically fused to a GPCR. The specificity of interactions was assessed through a decrease in BRET signal due to competitive displacement of the bound tracer. To further gauge the robustness of these interactions, the fold response over the control (i.e., BRETtracer/BRETcontrol) was calculated. We chose a 1.5-fold response, which translates to ≥7-fold signal over noise as the minimal threshold required to score an interaction as positive. […]. Below we highlight the screening results obtained for our exemplary fluorescent tracers based on Clozapine, Amitriptyline and AZD1283.
(§2) HiBiT-GPCR DNA constructs were diluted in 10 mM Tris pH 8 to a final concentration of 0.01 μg/μL, arrayed in 96-well plates and stored at −20 °C. For transfection, HEK293 cells were suspended in Opti-MEM (without phenol red) supplemented with 2% fetal bovine serum (Seradigm) and 100 units/mL penicillin–streptomycin (Gibco) at a final concentration of 220,000 cells/mL and dispensed into white 96-well plates at 90 μL/well. Subsequent transfections and screens were carried using an Agilent Bravo Automated Liquid Handling Platform. First, the 96-well HiBiT DNA arrays were diluted 25-fold in Opti-MEM (without serum or phenol red) to a final concentration of 0.0004 μg/μL and 20 μL of the diluted DNAs were transferred into new 96-well plates. Next, promoterless carrier DNA (1 μg/μL) was diluted 25-fold (0.04 μg/μL) and then dispensed into the diluted arrays at 20 μL/well. Following brief mixing, Viafect transfection reagent (Promega) diluted 16-fold into Opti-MEM was dispensed into the plates at 40 μL/well. After mixing by pipetting, plates were incubated for 10 min on the pipetting station deck. The DNA-transfection reagent complexes were then added to plates containing cells. To facilitate the screen, 10 μL of DNA-transfection reagent complexes were added in duplicates to the top 4 and bottom 4 rows, resulting in two identical 48-well arrays per plate. Plates with transfected cells were incubated for 18–20 h at 37 °C/5% CO2. A screen of each tracer across the entire library using two different concentrations requires duplicate plates of transfected cells. Depending on the number of tracers being screened, transfections can be scaled up using the same ratios. The next day, for each tracer, four 20× screening solutions in tracer dilution buffer (Promega) were prepared: two duplicates at final concentration of 20 μM and two duplicates at a final concentration of 2 μM. A competing unmodified compound was added to one of each duplicate at a final concentration of 400 μM. The four resulting solutions were diluted 4-fold in Opti-MEM without serum or phenol red to generate 5× solutions (5 µM and 0.5 µM tracer +/− 100 μM competing compound). To screen the library, a BioTek MultiFlo FX liquid dispenser was used to dispense 22.5 µL of tracer solution to the top 4 rows and 22.5 µL tracer + competing compound solution to the 4 bottom rows. Plates were briefly mixed on an orbital shaker and incubated for 1.5 h at room temperature. […]

SSTR4 = target: T2, SSTR4 (Homo sapiens, UniProt P31391); assay: NanoBRET screen HiBiT-SSTR4 in HEK293
T2 construct: purchased Promega (in-house HiBiT-GPCR construct library, NanoBRET)
Method: as §1, §2

RXFP2 = target: T3, RXFP2 (Homo sapiens, UniProt Q8WXD0); assay: NanoBRET screen HiBiT-RXFP2 in HEK293
T3 construct: purchased Promega (in-house HiBiT-GPCR construct library, NanoBRET)
Method: as §1, §2

FZD2 = target: T4, FZD2 (Homo sapiens, UniProt Q14332); assay: NanoBRET screen HiBiT-FZD2 in HEK293
T4 construct: purchased Promega (in-house HiBiT-GPCR construct library, NanoBRET)
Method: as §1, §2

SSTR5 = target: T5, SSTR5 (Homo sapiens, UniProt P35346); assay: NanoBRET screen HiBiT-SSTR5 in HEK293
T5 construct: purchased Promega (in-house HiBiT-GPCR construct library, NanoBRET)
Method: as §1, §2

GCGR = target: T6, GCGR (Homo sapiens, UniProt P47871); assay: NanoBRET screen HiBiT-GCGR in HEK293
T6 construct: purchased Promega (in-house HiBiT-GPCR construct library, NanoBRET)
Method: as §1, §2

SSTR3 = target: T7, SSTR3 (Homo sapiens, UniProt P32745); assay: NanoBRET screen HiBiT-SSTR3 in HEK293
T7 construct: purchased Promega (in-house HiBiT-GPCR construct library, NanoBRET)
Method: as §1, §2

NMUR1 = target: T8, NMUR1 (Homo sapiens, UniProt Q9HB89); assay: NanoBRET screen HiBiT-NMUR1 in HEK293
T8 construct: purchased Promega (in-house HiBiT-GPCR construct library, NanoBRET)
T8 sequence (Q9HB89 1-426): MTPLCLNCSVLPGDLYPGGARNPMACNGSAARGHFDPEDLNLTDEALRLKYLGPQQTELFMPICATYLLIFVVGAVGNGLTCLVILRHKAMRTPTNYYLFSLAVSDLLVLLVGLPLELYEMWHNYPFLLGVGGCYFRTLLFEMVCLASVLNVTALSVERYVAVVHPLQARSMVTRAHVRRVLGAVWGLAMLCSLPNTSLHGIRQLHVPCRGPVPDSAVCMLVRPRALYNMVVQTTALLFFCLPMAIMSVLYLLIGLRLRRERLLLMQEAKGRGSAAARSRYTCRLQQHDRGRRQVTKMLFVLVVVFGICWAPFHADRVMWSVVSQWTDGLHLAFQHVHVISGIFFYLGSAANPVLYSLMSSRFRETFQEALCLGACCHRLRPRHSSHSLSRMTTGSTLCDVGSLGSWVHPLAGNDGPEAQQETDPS
Method: as §1, §2

[1] = tracer at 0.1μM, listed as amitriptyline-b-2-NB590
[2] = tracer at 1μM, listed as amitriptyline-b-2-NB590

T2 sequence (P31391 whole entry): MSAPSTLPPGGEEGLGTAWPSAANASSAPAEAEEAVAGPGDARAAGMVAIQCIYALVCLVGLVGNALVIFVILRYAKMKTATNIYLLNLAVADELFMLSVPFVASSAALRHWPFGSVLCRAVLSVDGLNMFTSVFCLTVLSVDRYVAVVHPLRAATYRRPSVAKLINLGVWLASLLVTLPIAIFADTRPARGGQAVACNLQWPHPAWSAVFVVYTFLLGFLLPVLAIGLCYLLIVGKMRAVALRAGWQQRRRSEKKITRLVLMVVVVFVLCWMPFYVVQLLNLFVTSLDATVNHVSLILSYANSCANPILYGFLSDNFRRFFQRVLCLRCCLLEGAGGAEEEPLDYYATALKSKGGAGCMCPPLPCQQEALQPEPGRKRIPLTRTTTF
T5 sequence (P35346 whole entry): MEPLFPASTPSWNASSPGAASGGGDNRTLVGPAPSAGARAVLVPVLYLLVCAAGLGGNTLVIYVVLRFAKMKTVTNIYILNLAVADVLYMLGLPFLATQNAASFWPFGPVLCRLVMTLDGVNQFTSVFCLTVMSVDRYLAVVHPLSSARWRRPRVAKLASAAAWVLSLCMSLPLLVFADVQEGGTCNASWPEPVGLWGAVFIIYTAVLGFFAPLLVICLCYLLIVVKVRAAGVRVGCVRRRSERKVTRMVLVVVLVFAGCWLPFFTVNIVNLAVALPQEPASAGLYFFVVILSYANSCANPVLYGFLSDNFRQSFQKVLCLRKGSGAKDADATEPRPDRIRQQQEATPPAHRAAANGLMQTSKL
T3 sequence (Q8WXD0 whole entry): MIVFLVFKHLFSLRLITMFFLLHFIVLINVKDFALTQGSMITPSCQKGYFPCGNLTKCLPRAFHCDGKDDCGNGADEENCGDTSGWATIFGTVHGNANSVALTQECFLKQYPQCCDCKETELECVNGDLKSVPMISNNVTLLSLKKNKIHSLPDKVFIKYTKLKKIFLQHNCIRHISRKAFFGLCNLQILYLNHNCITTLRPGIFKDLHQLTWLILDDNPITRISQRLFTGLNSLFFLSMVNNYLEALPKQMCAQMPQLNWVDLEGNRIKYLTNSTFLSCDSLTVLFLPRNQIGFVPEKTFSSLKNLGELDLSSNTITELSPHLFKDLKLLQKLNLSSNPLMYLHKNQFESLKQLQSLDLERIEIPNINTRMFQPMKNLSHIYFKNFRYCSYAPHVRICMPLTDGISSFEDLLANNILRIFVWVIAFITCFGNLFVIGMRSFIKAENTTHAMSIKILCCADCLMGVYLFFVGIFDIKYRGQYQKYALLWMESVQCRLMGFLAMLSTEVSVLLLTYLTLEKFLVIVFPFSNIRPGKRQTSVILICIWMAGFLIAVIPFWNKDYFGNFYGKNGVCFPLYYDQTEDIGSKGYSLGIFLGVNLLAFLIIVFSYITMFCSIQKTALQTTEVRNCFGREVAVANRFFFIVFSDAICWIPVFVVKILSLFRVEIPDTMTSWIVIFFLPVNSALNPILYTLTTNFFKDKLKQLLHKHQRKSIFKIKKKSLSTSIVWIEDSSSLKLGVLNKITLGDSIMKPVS
T6 sequence (P47871 26-477): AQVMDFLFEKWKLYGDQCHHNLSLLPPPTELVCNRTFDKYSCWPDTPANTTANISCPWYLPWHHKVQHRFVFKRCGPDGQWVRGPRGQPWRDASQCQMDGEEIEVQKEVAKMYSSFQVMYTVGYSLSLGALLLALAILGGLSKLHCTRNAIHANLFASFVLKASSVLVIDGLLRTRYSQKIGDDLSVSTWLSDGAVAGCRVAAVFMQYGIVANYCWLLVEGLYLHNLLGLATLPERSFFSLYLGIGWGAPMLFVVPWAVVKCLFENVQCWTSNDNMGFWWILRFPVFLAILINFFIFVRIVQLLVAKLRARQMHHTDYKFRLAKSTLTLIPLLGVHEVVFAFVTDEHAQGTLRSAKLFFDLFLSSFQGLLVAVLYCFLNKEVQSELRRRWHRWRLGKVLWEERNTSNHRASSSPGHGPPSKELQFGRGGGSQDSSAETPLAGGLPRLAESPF
T7 sequence (P32745 whole entry): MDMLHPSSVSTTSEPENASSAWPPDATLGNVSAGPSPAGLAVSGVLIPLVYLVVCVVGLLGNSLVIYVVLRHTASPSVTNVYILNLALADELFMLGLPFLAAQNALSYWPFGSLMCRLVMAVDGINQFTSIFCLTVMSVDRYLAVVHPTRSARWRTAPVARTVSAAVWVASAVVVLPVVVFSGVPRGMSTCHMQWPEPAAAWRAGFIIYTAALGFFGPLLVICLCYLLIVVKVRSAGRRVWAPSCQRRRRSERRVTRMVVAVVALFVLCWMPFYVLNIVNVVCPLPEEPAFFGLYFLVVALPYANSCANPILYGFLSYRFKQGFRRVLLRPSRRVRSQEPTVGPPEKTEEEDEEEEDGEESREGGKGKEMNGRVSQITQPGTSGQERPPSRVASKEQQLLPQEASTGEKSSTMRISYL
T4 sequence (Q14332 24-565): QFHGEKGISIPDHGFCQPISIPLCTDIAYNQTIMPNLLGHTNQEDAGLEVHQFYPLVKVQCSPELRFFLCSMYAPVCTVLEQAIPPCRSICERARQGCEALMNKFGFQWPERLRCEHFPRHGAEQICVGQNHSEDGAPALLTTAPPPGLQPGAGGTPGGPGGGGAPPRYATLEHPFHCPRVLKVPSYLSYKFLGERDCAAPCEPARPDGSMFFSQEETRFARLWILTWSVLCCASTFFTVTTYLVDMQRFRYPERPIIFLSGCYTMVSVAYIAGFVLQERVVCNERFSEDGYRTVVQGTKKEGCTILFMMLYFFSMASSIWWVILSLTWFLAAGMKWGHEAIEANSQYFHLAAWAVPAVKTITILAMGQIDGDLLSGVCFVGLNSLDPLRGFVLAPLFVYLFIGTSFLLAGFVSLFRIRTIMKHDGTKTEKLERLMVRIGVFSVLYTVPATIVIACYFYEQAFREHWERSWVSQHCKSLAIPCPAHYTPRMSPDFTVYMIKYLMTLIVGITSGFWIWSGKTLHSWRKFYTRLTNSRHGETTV

SMILES	NanoBRET Fold Response (CXCR5; 0.1μM tracer)	NanoBRET Fold Response (CXCR5; 1μM tracer)	NanoBRET Fold Response (SSTR4; 0.1μM tracer)	NanoBRET Fold Response (SSTR4; 1μM tracer)	NanoBRET Fold Response (RXFP2; 0.1μM tracer)	NanoBRET Fold Response (RXFP2; 1μM tracer)	NanoBRET Fold Response (FZD2; 0.1μM tracer)	NanoBRET Fold Response (FZD2; 1μM tracer)	NanoBRET Fold Response (SSTR5; 0.1μM tracer)	NanoBRET Fold Response (SSTR5; 1μM tracer)	NanoBRET Fold Response (GCGR; 0.1μM tracer)	NanoBRET Fold Response (GCGR; 1μM tracer)	NanoBRET Fold Response (SSTR3; 0.1μM tracer)	NanoBRET Fold Response (SSTR3; 1μM tracer)	NanoBRET Fold Response (NMUR1; 0.1μM tracer)	NanoBRET Fold Response (NMUR1; 1μM tracer)	also measured
CN(C)CCC=C1c2ccccc2CCc2ccc(C(=O)NCCNC(=O)CCOCCOCCOCCOCCNC(=O)CCc3ccc4n3[B-](F)(F)[N+]3=C(c5ccc[nH]5)C=CC3=C4)cc21 [Amitriptyline-b-2-NB590]																	NanoBRET Fold Response (CXCR5; [1]): 1.39; NanoBRET Fold Response (CXCR5; [2]): 1.19; NanoBRET Fold Response (SSTR4; tracer at 0.1μM): 1.16; NanoBRET Fold Response (SSTR4; tracer at 1μM): 0.99; NanoBRET Fold Response (RXFP2; tracer at 0.1μM): 1.09; NanoBRET Fold Response (RXFP2; tracer at 1μM): 1.34; NanoBRET Fold Response (FZD2; [1]): 1.03; NanoBRET Fold Response (FZD2; [2]): 0.94; NanoBRET Fold Response (SSTR5; [1]): 0.96; NanoBRET Fold Response (SSTR5; tracer at 1μM): 0.97; NanoBRET Fold Response (GCGR; GCGR, tracer 0.1μM): 0.91; NanoBRET Fold Response (GCGR; GCGR, tracer 1μM): 1.03; NanoBRET Fold Response (SSTR3; tracer at 0.1μM): 0.95; NanoBRET Fold Response (SSTR3; tracer at 1μM): 0.99; NanoBRET Fold Response (NMUR1; [1]): 1.14; NanoBRET Fold Response (NMUR1; [2]): 1.10
CN(CCC=C1c2ccccc2CCc2ccccc21)C(=O)CCOCCOCCOCCOCCNC(=O)CCc1ccc2n1[B-](F)(F)[N+]1=C(c3ccc[nH]3)C=CC1=C2 [Amitriptyline-e-2-NB590]																	NanoBRET Fold Response (CXCR5; tracer at 1μM): 0.98; NanoBRET Fold Response (FZD2; tracer at 1μM): 1.03
COc1ccc2c(n1)c(CCNC(C)=O)cn2CCNC(=O)CCc1ccc2n1[B-](F)(F)[N+]1=C(c3ccc[nH]3)C=CC1=C2 [Azamelatonin-1-NB590]	0.93	1.19	0.93	1.01	1.10	1.34	0.95	0.95	0.82	0.99	1.01	1.10	1.03	1.08	0.78	0.97	
COc1ccc2[nH]c(-c3ccc(CNC(=O)CCOCCOCCOCCOCCNC(=O)CCc4ccc5n4[B-](F)(F)[N+]4=C(c6ccc[nH]6)C=CC4=C5)cc3)c(CCNC(C)=O)c2n1 [AzomelatoninICO9-2-NB590]	1.36	0.90	0.84	0.98	1.23	0.59	0.99	1.11	1.01	1.01	0.90	1.05	0.94	1.01	0.77	0.91	
